# Measurements published in EP1102746B1, “SUBSTITUTED PHENYLAMIDINES WITH ANTITHROMBOTIC ACTION” (Boehringer Ingelheim Pharma GmbH & Co.KG, priority 1998, dated 2000).
# Assay: Plasma concentration of Verbindung A after oral administration to rhesus monkeys (determined by 3H-BIBU 52 ligand displacement on human platelets against a calibration curve)
# Assay type: in vivo, Rhesusaffen
# Details: rhesus monkey, oral 1 mg/kg, Rhesusaffe, concentration of Verbindung A measured
# Experimental: Beispielsweise wurde die Konzentration der Verbindung A nach oraler Gabe der Verbindungen der Beispiele 1 (Verbindung B) und 1(1) (Verbindung C) der vorliegenden Erfindung im Plasma bestimmt und mit der Plasmakonzentration der Verbindung A nach oraler Gabe der Verbindung A verglichen.
# Nach oraler Gabe von 1 mg/kg der zu untersuchenden Verbindungen am Rhesusaffen wird die Konzentration der Verbindung A im Plasma 4, 8, 12 und 24 Stunden nach Substanzgabe gemessen. Hierzu wird das Rhesusplasma mit einer Suspension von Humanthrombozyten in Plasma und ^3H-BIBU 52 (siehe DE-A-4,214,245) als Ligand inkubiert. Der freie und gebundene Ligand wird durch Zentrifugation getrennt und durch Szintillationszählung quantitativ bestimmt. Aus der Menge des gebundenen Liganden wird anhand einer Eichkurve die Konzentration der Verbindung A errechnet.
# Dazu wird aus einer Antikubitalvene Spenderblut entnommen und mit Trinatriumzitrat antikoaguliert (Endkonzentration: 13 mMol/l). Das Blut wird 10 Minuten bei 170 x g zentrifugiert und das überstehende plättchenreiche Plasma (PRP) abgenommen. Das Restblut wird noch einmal bei 3200 x g scharf abzentrifugiert und das überstehende plättchenarme Plasma (PPP) abgenommen.
# Für die Eichkurve zur Berechnung der Konzentration wird zu 995 µl PPP 5 µl Lösung der Verbindung A zugesetzt (Endkonzentration 5000 nMol/l). Aus dieser Plasmaprobe werden mit PPP weitere Plasmaproben verdünnt bis zu einer Endkonzentration von 2,5 nMol/l.
# Zu 150 µl Plasmaprobe vom Rhesusaffen oder Eichkurvenplasma werden 10 µl ^3H-BIBU 52 (Endkonzentration 10 nMol/l), 10 µl ^14C-Sucrose (370 Bq) und 80 µl PRP gegeben und bei Raumtemperatur 20 Minuten inkubiert. Anschließend werden die Proben 5 Minuten bei 2000 x g zentrifugiert und der Überstand abgezogen. 100 µl des Überstandes werden versetzt mit 100 µl NaOH 0,2 Mol/l, 15 µl HCl 5 Mol/l und 2 ml Szintillator und die ^3H- und ^14C-Radioaktivität quantitativ gemessen. Das Pellet wird in 200 µl NaOH 0,2 Mol/l gelöst. 180 µl davon werden versetzt mit 15 µl HCl 5 Mol/l und 2 ml Szintillator und die ^3H- und ^14C-Radioaktivität gemessen. Das im Pellet noch verbliebene Restplasma wird aus dem ^14C-Gehalt bestimmt und abgezogen. Die Menge des gebundenen Liganden wird aus dem ^3H-Gehalt bestimmt. Die Menge des gebundenen Liganden wird gegen die Konzentration des Eichkurvenplasmas aufgetragen. Die Konzentration der Verbindung A im Rhesusplasma wird aus der Menge des gebundenen Liganden in der betreffenden Plasmaprobe im Vergleich mit der Eichkurve errechnet.
# Die nachfolgende Tabelle enthält die gefundenen Werte: […]
structure (smiles),measurement,setting,value
"N=C(N)c1ccc(NC(=O)CCC2CCN(CC(=O)O)CC2)cc1 [Verbindung A, 4-[2-[(4-Amidinophenyl)aminocarbonyl]ethyl]-1-carboxymethyl-piperidin]",concentration at 4 h,"4 h after dosing, read-out: Konz. von A in [nM], 4h",174 nM
same,concentration at 8 h,"8 h after dosing, read-out: Konz. von A in [nM], 8h",38 nM
same,concentration at 12 h,"12 h after dosing, read-out: Konz. von A in [nM], 12h",25 nM
same,concentration at 24 h,"24 h after dosing, read-out: Konz. von A in [nM], 24h",3 nM
